Laboratory results: article PMC10261008, “A peptide triple agonist of GLP-1, neuropeptide Y1, and neuropeptide Y2 receptors promotes glycemic control and weight loss” (Scientific Reports, 2023)
Square brackets hold non-standard residues; d marks the D form. Ends that are not written are not given here.

Experiments:
[1] = tested on: patients; details: cited from earlier work
[2] = molecular target: T1, human GLP-1R (Homo sapiens, UniProt P43220); test: cAMP FRET agonism at GLP-1R in H188-GLP-1R transduced HEK293 cells; format: cell-based; details: FRET ratio tracking cAMP, Fig. 1A
Procedure: H188 virally transduced HEK293 cells stably expressing human GLP-1R were obtained from Novo Nordisk A/S for use in FRET assays. HEK293 C24 cells stably expressing the H188 FRET reporter were obtained by G418 selection and grown in monolayers to ∼70% confluency in 100 cm^2 tissue culture dishes and were then transfected with plasmids (11 μg/dish) encoding human GLP-1R, human Y2-R, or human Y1-R. Transfected cells were then incubated for 48 h in fresh culture media. For real-time FRET kinetic assays, cells were harvested, resuspended in 21 mL of SES buffer, and plated at 196 μL per well. […] Y1-R and Y2-R agonism to stimulate Gi proteins and to inhibit adenylyl cyclase was monitored by detecting the ability of PYY peptides, GEP44, or GEP12 to counteract the ability of Adenosine (acting through endogenous A2B receptor and Gs proteins) to increase levels of cAMP. For these assays, increased levels of cAMP were measured as an increase of the 485/535 nm FRET ratio serving as a readout for binding of cAMP to the H188 biosensor that is based on the exchange protein activated by cAMP[15].

[3] = molecular target: T1, human GLP-1R; test: SPR binding to His-tagged GLP-1R on NTA sensor; details: in-house SPR, 0.1–100 nM, duplicate
[4] = molecular target: T1, human GLP-1R; test: β-arrestin-2 recruitment at GLP-1R; format: cell-based; details: dose–response 5.51 pM–551 nM, duplicate
[5] = molecular target: T2, human Y2-R (Homo sapiens, UniProt P49146); test: Radioligand competitive binding assay at Y2-R in CHO-K1 cells; details: 1 pM–1 µM, duplicate independent runs, read-out: half-maximal binding at Y2-R
T2 sequence (P49146 1-381): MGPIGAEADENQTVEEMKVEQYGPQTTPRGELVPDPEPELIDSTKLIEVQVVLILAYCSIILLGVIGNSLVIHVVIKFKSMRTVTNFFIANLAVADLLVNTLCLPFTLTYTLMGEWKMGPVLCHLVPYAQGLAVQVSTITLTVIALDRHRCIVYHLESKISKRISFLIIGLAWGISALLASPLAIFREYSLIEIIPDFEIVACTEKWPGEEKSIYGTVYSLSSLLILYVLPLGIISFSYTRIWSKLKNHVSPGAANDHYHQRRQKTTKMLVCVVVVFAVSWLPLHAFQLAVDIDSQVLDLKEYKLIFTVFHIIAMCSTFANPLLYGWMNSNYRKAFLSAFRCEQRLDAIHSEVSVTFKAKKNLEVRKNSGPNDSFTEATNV

[6] = tested on: lean and diet-induced obese (DIO) rats; set-up: method as in PMID 33449689; details: rat, in vivo; cited from earlier work
[7] = tested on: DIO Wistar rats; test: Dose escalation study of food intake and tolerability in diet-induced obese male rats; format: in vivo, rat; details: s.c. once daily
Procedure: Wistar rats purchased from Charles River Laboratories (Wilmington, MA) were used in this study. The rats were provided with ad libitum access to food and water and were kept on a 12 h light/12 h dark cycle. For all other experiments, male rats (51–75 g; approximately 4 weeks of age) were fed a diet with 60% of the calories provided by fat (D12492; Research Diets, Inc; New Brunswick, NJ; 5.21 kcal/g) for approximately five months before the start of the study generate diet-induced obesity (DIO). Animals were individually housed in a temperature (22 ± 1 °C) and humidity-controlled (57 ± 4%) room. All body weight measurements were taken just before the start of the dark cycle.
GEP44 stock solutions were prepared using sterile ultra-pure H2O and gently agitated at 4 °C for > 24 h and then aliquoted and stored at − 20 °C. […] GEP12 (aliquots up to 5 mg) was dissolved in 100 µL DMSO and mixed at 1000 rpm for three min to create a stock solution. Stock solutions were diluted to working solutions in 0.9% normal saline, resulting in a final DMSO concentration of < 2%. […]
Rats were singly housed in BioDAQ cages and allowed to acclimate for at least 10 days before the start of this study. […] Body weight was assessed daily just before the start of the dark cycle. Food and water were available ad libitum and consumption was monitored continuously.

[8] = molecular target: T2, human Y2-R; test: Y2-R agonism: counteraction of adenosine-stimulated cAMP (FRET) in HEK293 C24 cells transfected with Y2-R; format: cell-based; details: HEK293 C24 cells transiently transfected with Y2-R, 20 min pre-treatment; also reported previously [16]; read-out: IC50, inhibition of adenosine-stimulated cAMP production at Y2-R
Procedure: H188 virally transduced HEK293 cells stably expressing human GLP-1R were obtained from Novo Nordisk A/S for use in FRET assays. HEK293 C24 cells stably expressing the H188 FRET reporter were obtained by G418 selection and grown in monolayers to ∼70% confluency in 100 cm^2 tissue culture dishes and were then transfected with plasmids (11 μg/dish) encoding human GLP-1R, human Y2-R, or human Y1-R. Transfected cells were then incubated for 48 h in fresh culture media. For real-time FRET kinetic assays, cells were harvested, resuspended in 21 mL of SES buffer, and plated at 196 μL per well. Plated cells were pretreated with 4 μL of agonist, or antagonist (Ex9-39 (GLP-1R antagonist) or BIIE0246 (Y2-R antagonist)), at a given target concentration and incubated for 20 min before performing the assay. Y1-R and Y2-R agonism to stimulate Gi proteins and to inhibit adenylyl cyclase was monitored by detecting the ability of PYY peptides, GEP44, or GEP12 to counteract the ability of Adenosine (acting through endogenous A2B receptor and Gs proteins) to increase levels of cAMP. For these assays, increased levels of cAMP were measured as an increase of the 485/535 nm FRET ratio serving as a readout for binding of cAMP to the H188 biosensor that is based on the exchange protein activated by cAMP[15].

[9] = molecular target: T3, human Y1-R (Homo sapiens, UniProt P25929); test: SPR binding at Y1-R; details: in-house SPR, 4 pM–19 µM; read-out: half-maximal binding at Y1-R
T3 construct: His tag; purchased antibodies-online Inc. ABIN7086253
T3 sequence (P25929 1-384): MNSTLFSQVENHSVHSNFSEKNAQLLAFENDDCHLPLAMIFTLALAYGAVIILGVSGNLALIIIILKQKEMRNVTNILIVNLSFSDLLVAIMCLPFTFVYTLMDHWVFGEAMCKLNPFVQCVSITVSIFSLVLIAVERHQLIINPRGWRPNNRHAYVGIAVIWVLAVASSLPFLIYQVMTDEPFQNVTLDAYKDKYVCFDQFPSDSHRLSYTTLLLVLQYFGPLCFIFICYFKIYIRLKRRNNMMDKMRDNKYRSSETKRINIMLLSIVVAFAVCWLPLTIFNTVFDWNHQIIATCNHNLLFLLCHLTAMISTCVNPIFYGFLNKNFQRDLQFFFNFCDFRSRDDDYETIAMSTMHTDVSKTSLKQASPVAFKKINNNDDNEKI
Procedure: Peptides were precipitated with cold (4 °C) diethyl ether and purified on an Agilent 1200 series High-Performance Liquid Chromatography (HPLC) instrument (10–75% HPLC-grade acetonitrile for 20 min at a 2 mL/min flow rate over an Agilent Zorbax C18 column (5 µm, 9.4 × 250 mm) tracked at 220, 254, and 280 nm. Peptides were purified to > 95%. Peptide binding was assayed by EuroscreenFast (Gosselies, Belgium) or in-house with a Nicoya Open Surface Plasmon Resonance (SPR) instrument. Internalization and β-arrestin recruitment assays were performed by Eurofins Discovery (Fremont, CA, USA).
Peptide binding to human Y1-R was performed in-house by SPR.

[10] = molecular target: T1, human GLP-1R; test: Agonist-activated internalization of GLP-1R; format: cell-based; details: dose–response 30 pM–1 µM, duplicate
Procedure: Human GLP-1R (Gs-coupled) cell-based agonist-activated internalization assays were performed by Eurofins Discovery.

T1 sequence (P43220 24-463): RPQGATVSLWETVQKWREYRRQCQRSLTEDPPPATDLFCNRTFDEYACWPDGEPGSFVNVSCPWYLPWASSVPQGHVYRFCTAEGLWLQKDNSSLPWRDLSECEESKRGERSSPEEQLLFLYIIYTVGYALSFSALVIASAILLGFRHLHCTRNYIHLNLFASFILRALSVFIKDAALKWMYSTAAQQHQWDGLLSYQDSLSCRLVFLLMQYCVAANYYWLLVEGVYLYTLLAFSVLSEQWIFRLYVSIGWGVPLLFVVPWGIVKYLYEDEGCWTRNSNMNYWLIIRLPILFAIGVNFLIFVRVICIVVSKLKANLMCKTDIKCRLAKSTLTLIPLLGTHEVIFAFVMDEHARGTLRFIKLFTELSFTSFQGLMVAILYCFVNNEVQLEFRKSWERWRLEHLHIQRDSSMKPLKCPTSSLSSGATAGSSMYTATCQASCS

## tirzepatide
[1]; 10 or 15 mg per week
  patients achieving a weight loss of 20% and more: at least 50%
[1]; human, in vivo
  diarrhea, incidence: 15–17%
  discontinuation of treatment due to gastrointestinal symptoms: 3–7%
  nausea, incidence: 12–24%
  vomiting, incidence: 6–10%

## F[dS]QGTFTSDLSKYLEEEAVREFIAWLKNGGPSRHYLNLVTRQRY-NH2 [GEP12]
[2]
  EC50: 17.3 nM
[3]
  IC50: 19.2 nM

## H[dS]QGTFTSDLSKYLEEEAVREFIAWLKNGGPSRHYLNLVTRQRY-NH2 [GEP44]
[4]
  EC50: 1.59 nM
[5]
  IC50: 65.8 nM
[6]
  visceral malaise: no visceral malaise
[7]
  no observed adverse effect level (NOAEL): 20 nmol/kg/day
[8]
  IC50: 34 nM
[9]
  IC50: 86.6 nM
[10]
  EC50: 3.97 nM
